Source: PMC10030653, “ClpC2 protects mycobacteria against a natural antibiotic targeting ClpC1-dependent protein degradation” (Communications Biology, 2023)
Numbered stars: 1 amine (or outer) side, 2 acyl side, 3 side chain; on linkers, the order of the positions; unused ones are H or OH. Square brackets hold non-standard residues; d marks the D form. Peptide text beside a SMILES is read from it. X1 = CC(C)([C@@H]1CO1)n1cc([C@@H](O)[C@H](N[*:1])C(=O)[*:2])c2ccccc21; Ala(3R-Me,3-isobutenyl) = CC(C)=C[C@@H](C)[C@H](N)C(=O)O; NMeLeu(5-OH,4R) = CN[C@@H](C[C@@H](C)CO)C(=O)O; Phe(βR-OMe) = CO[C@H](c1ccccc1)[C@H](N)C(=O)O; NMeL = CN[C@@H](CC(C)C)C(=O)O

Legend:
Mycobacterium smegmatis = test: Growth curves of Msm strains with CymA
Method: Mycobacterium smegmatis MC^2155 SMR5 and derived strains were routinely grown at 37 °C with shaking in DIFCO™ Middlebrook7H9 broth (BD) supplemented with 0.05% Tween 80 and 0.2% glycerol. The antibiotics apramycin (50 µg/ml) or hygromycin B (100 µg/ml) were added as needed. […] The DMSO concentration of cultures was maintained at less than 1% in all instances.
Msm cultures were diluted to an OD600 of 0.005 in 7H9. […] The cultures were grown at 37 °C with shaking (200 rpm) and the culture growth monitored by periodically measuring the OD600.

ClpC1 NTD = settings: cited from earlier work
ClpC1 [1] = settings: Msm, 150 nM CymA, 0-8 h
ClpC1 [2] = settings: cited from earlier work
clpC2 mRNA = test: RT-qPCR of clpC2 expression after CymA; assay type: cell-based, Mycobacterium smegmatis; settings: Msm, 150 nM CymA; for Cq value ClpC2 / Cq value RpoB (reference gene): 1 h
[3] = tested on: ClpC1 hexamer/ClpP1P2 tetradecamer (ClpC1P); test: FITC-casein degradation assay; assay type: biochemical, Mycobacterium tuberculosis; settings: 2 μM CymA
Method: Degradation of FITC-casein (Sigma) was carried out in 50 mM HEPES-KOH pH 7.1, 150 mM KCl, 20 mM MgCl2, 10% glycerol by 0.5 μM ClpC1 hexamer and 0.8 μM ClpP1P2 tetradecamer with the addition of 0.4 mM activator peptide benzyloxycarbonyl-L-leucyl-L-leucinal (PeptaNova), 0.5 mM DTT, 1 U/ml creatine phosphokinase, 20 mM phosphocreatine, 10 mM ATP at 37 °C. […] Whereas the effect of an excess of ClpC2 on the degradation of FITC-casein (10 μM) was carried out in the presence of 100 μM ClpC2. Fluorescence intensity increases upon degradation of FITC-casein as a consequence of fluorophore dequenching was monitored using the BioTek Synergy 2 Plate Reader with a 485/20 nm band-pass […] filter. Rates of degradation were determined from the initial slopes and used to determine the CymA-induced stimulation of ClpC1P activity at the different concentrations of ClpC2.

Staphylococcus aureus = settings: cited from earlier work
Description: (§1) CymA is a cyclic heptapeptide that is synthesised by the marine bacterium Streptomyces sp. CNB-982[33]–[35].

Escherichia coli = settings: cited from earlier work
Description: as §1

ClpC2 [4] = assay type: cell-based, Mycobacterium smegmatis; settings: Msm WT, OD600 0.5, 150 nM CymA, 37 °C, from 1 h to 8 h after addition
ClpC2 [5] = assay type: cell-based, Mycobacterium smegmatis; settings: Msm, 150 nM CymA, around 8 h after addition
mycobacteria = settings: cited from earlier work
[6] = target: Mtb ClpC1 NTD (ClpC1^1-145) (Mycobacterium tuberculosis, UniProt P9WPC9); test: biochemical; assay type: binding
[7] = tested on: ClpC2 / clpC2 operator DNA; test: EMSA, ClpC2 binding to clpC2 operator DNA; design: species or system Mycobacterium tuberculosis; settings: for fraction of DNA bound to ClpC2: 1 μM CymA

Chain of Mtb ClpC1 NTD (ClpC1^1-145) (P9WPC9 1-145): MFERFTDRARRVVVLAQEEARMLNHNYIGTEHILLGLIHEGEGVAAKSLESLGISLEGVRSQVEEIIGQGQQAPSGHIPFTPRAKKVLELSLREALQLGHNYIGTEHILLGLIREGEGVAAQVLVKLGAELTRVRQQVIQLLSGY

SMILES: CO[C@H](c1ccccc1)[C@@H]1NC(=O)[C@H](C)NC(=O)[C@H](C[C@@H](C)CO)N(C)C(=O)[C@H]([C@H](O)c2cn(C(C)(C)[C@@H]3CO3)c3ccccc23)NC(=O)[C@H]([C@H](C)C=C(C)C)NC(=O)[C@H](CC(C)C)N(C)C(=O)[C@H](C(C)C)NC1=O [CymA, cyclomarin A] (cyclo(A[Phe(βR-OMe)]V[NMeL][Ala(3R-Me,3-isobutenyl)][X1][NMeLeu(5-OH,4R)]))
- growth of ΔclpC2 with CymA (Mycobacterium smegmatis; Msm ΔclpC2, sub-MIC50 CymA (150 nM), 7H9, 37 °C, vs parent strain): diminished growth compared to the parent strain
- growth of comclpC2 F99A with CymA (Mycobacterium smegmatis; Msm ΔclpC2 complemented with clpC2 F99A, 150 nM CymA, 7H9, 37 °C): attenuated growth upon exposure to CymA
- growth of comclpC2 R188A/R192A with CymA (Mycobacterium smegmatis; Msm ΔclpC2 complemented with clpC2 R188A/R192A, in the presence of CymA): lack of growth impairment
- growth of comclpC2 WT with CymA (Mycobacterium smegmatis; Msm ΔclpC2 complemented with clpC2 WT, 150 nM CymA, 7H9, 37 °C): the WT phenotype was restored
- target binding domain (ClpC1 NTD): specifically target ClpC1 NTD
- ClpC1 level after CymA (ClpC1 [1]): remained fairly constant
- effect on ClpC1 ATPase and proteolytic activity (ClpC1 [2]): enhance the ATPase and proteolytic activity as well as reduce substrate specificity of ClpC1
- Cq value ClpC2 (clpC2 mRNA; replicate 1): 21.9726
- Cq value RpoB (reference gene) (clpC2 mRNA; replicate 1): 23.9629
- Cq value ClpC2 (clpC2 mRNA; replicate 2): 21.7648
- Cq value RpoB (reference gene) (clpC2 mRNA; replicate 2): 24.1812
- Cq value ClpC2 (clpC2 mRNA; replicate 3): 20.9483
- Cq value RpoB (reference gene) (clpC2 mRNA; replicate 3): 23.5984
- increase in clpC2 mRNA (clpC2 mRNA; one hour, normalised to rpoB, biological n = 3, P = 0.0015 (two-tailed unpaired t test)): 263 fold
- FITC-casein degradation rate ([3]; 0 μM ClpC2, 37 °C, replicate 1): 8.073 min⁻¹
- FITC-casein degradation rate ([3]; 0 μM ClpC2, 37 °C, replicate 2): 7.688 min⁻¹
- FITC-casein degradation rate ([3]; 0 μM ClpC2, 37 °C, replicate 3): 7.795 min⁻¹
- FITC-casein degradation rate ([3]; 0.2 μM ClpC2, 37 °C, replicate 1): 7.586 min⁻¹
- FITC-casein degradation rate ([3]; 0.2 μM ClpC2, 37 °C, replicate 2): 7.529 min⁻¹
- FITC-casein degradation rate ([3]; 0.2 μM ClpC2, 37 °C, replicate 3): 6.77 min⁻¹
- FITC-casein degradation rate ([3]; 0.5 μM ClpC2, 37 °C, replicate 1): 6.271 min⁻¹
- FITC-casein degradation rate ([3]; 0.5 μM ClpC2, 37 °C, replicate 2): 6.851 min⁻¹
- FITC-casein degradation rate ([3]; 0.5 μM ClpC2, 37 °C, replicate 3): 6.213 min⁻¹
- FITC-casein degradation rate ([3]; 1 μM ClpC2, 37 °C, replicate 1): 6.248 min⁻¹
- FITC-casein degradation rate ([3]; 1 μM ClpC2, 37 °C, replicate 2): 6.426 min⁻¹
- FITC-casein degradation rate ([3]; 1 μM ClpC2, 37 °C, replicate 3): 5.933 min⁻¹
- FITC-casein degradation rate ([3]; 2 μM ClpC2, 37 °C, replicate 1): 4.9721 min⁻¹
- FITC-casein degradation rate ([3]; 2 μM ClpC2, 37 °C, replicate 2): 4.555 min⁻¹
- FITC-casein degradation rate ([3]; 2 μM ClpC2, 37 °C, replicate 3): 5.043 min⁻¹
- FITC-casein degradation rate ([3]; 4 μM ClpC2, 37 °C, replicate 1): 4.194 min⁻¹
- FITC-casein degradation rate ([3]; 4 μM ClpC2, 37 °C, replicate 2): 4.045 min⁻¹
- FITC-casein degradation rate ([3]; 4 μM ClpC2, 37 °C, replicate 3): 3.662 min⁻¹
- FITC-casein degradation rate ([3]; 8 μM ClpC2, 37 °C, replicate 1): 3.41 min⁻¹
- FITC-casein degradation rate ([3]; 8 μM ClpC2, 37 °C, replicate 2): 3.29 min⁻¹
- FITC-casein degradation rate ([3]; 8 μM ClpC2, 37 °C, replicate 3): 3.596 min⁻¹
- FITC-casein degradation rate ([3]; 12 μM ClpC2, 37 °C, replicate 1): 3.454 min⁻¹
- FITC-casein degradation rate ([3]; 12 μM ClpC2, 37 °C, replicate 2): 2.89 min⁻¹
- FITC-casein degradation rate ([3]; 12 μM ClpC2, 37 °C, replicate 3): 2.828 min⁻¹
- FITC-casein degradation rate ([3]; 18 μM ClpC2, 37 °C, replicate 1): 3.091 min⁻¹
- FITC-casein degradation rate ([3]; 18 μM ClpC2, 37 °C, replicate 2): 2.23 min⁻¹
- FITC-casein degradation rate ([3]; 18 μM ClpC2, 37 °C, replicate 3): 2.386 min⁻¹
- activity against Staphylococcus aureus (Staphylococcus aureus): little activity
- activity against Escherichia coli (Escherichia coli): little activity
- ClpC2 Western blot signal (ClpC2 [4]): increases by several orders of magnitude
- ClpC2 level in excess of ClpC1 (ClpC2 [5]): 84 fold
- activity against mycobacteria (mycobacteria): effective against mycobacteria
- Kd [6]: 2.3 nM
- fraction of DNA bound to ClpC2 ([7]; 1 nM ClpC2, replicate 1): 0
- fraction of DNA bound to ClpC2 ([7]; 1 nM ClpC2, replicate 2): 0.02788
- fraction of DNA bound to ClpC2 ([7]; 1 nM ClpC2, replicate 3): 0.04348
- fraction of DNA bound to ClpC2 ([7]; 2 nM ClpC2, replicate 1): 0
- fraction of DNA bound to ClpC2 ([7]; 2 nM ClpC2, replicate 2): 0.03704
- fraction of DNA bound to ClpC2 ([7]; 2 nM ClpC2, replicate 3): 0.05455
- fraction of DNA bound to ClpC2 ([7]; 5 nM ClpC2, replicate 1): 0.09091
- fraction of DNA bound to ClpC2 ([7]; 5 nM ClpC2, replicate 2): 0.08
- fraction of DNA bound to ClpC2 ([7]; 5 nM ClpC2, replicate 3): 0.06873
- fraction of DNA bound to ClpC2 ([7]; 10 nM ClpC2, replicate 1): 0.1629
- fraction of DNA bound to ClpC2 ([7]; 10 nM ClpC2, replicate 2): 0.1615
- fraction of DNA bound to ClpC2 ([7]; 10 nM ClpC2, replicate 3): 0.1694
- fraction of DNA bound to ClpC2 ([7]; 15 nM ClpC2, replicate 1): 0.2974
- fraction of DNA bound to ClpC2 ([7]; 15 nM ClpC2, replicate 2): 0.2686
- fraction of DNA bound to ClpC2 ([7]; 15 nM ClpC2, replicate 3): 0.2612
- fraction of DNA bound to ClpC2 ([7]; 25 nM ClpC2, replicate 1): 0.5671
- fraction of DNA bound to ClpC2 ([7]; 25 nM ClpC2, replicate 2): 0.4781
- fraction of DNA bound to ClpC2 ([7]; 25 nM ClpC2, replicate 3): 0.3902
- fraction of DNA bound to ClpC2 ([7]; 50 nM ClpC2, replicate 1): 0.7982
- fraction of DNA bound to ClpC2 ([7]; 50 nM ClpC2, replicate 2): 0.7344
- fraction of DNA bound to ClpC2 ([7]; 50 nM ClpC2, replicate 3): 0.731
- effect of CymA on ClpC2-operator DNA binding ([7]; EMSA, 1 µM CymA, room temperature, 20 min, pH 7.5): noticeable inhibitory effect on the interaction between ClpC2 and its operator site
